# Measurements reported in patent publication US10993923B2, “Method for ameliorating fibrosis using 1-[4-chloro-3-(trifluoromethyl)phenyl]-3-[3-(4-cyanophenoxy)phenyl]urea” (priority 2016, dated 2021).
# How the values were obtained:
# [1] = test system: BDL-induced cholestasis fibrosis in mice; test: Bile duct ligation (BDL) fibrosis mice prevention model; type: in vivo, Balb/C mice; settings: 10 mg/kg from day 1 until sacrifice on day 14 of BDL; FIG. 13A, 13B
# Excerpt: In the bile duct ligation (BDL) mouse model, the common bile duct of Balb/C mice was double-ligated and excised. Mice were fed daily with vehicle or 1-[4-chloro-3-(trifluoromethyl)phenyl]-3-[3-(4-cyanophenoxy)phenyl]urea on day 1 or day 8 until they were sacrificed on day 14.
# (§1) The mice liver samples were stored in 10% formaldehyde, dehydrated with gradient alcohol, embedded in paraffin blocks, sectioned to a thickness of 3 μm, placed on glass slides, and stained with Picrosirius Red Stain kit (ScyTek, USA), following the manufacturer's instructions. The severity of liver fibrosis was graded according to the Ishak fibrosis score. Quantitative collagen-positive area (qCPA) was determined by densitometry via ImageJ software. Hepatic hydroxyproline concentrations were measured by the hydroxyproline assay kit (Biovision, USA), following the manufacturer's instructions Immunohistochemistry was performed by the Leica BOND-MAX automatic chromatograph (Leica Biosystems, Germany), following the manufacturer's instructions.
# [2] = test system: hepatic stellate cells (HSC); test: Western blot in hepatic stellate cells (cell line not given); type: cell-based
# Method: Rat immortal hepatic stellate cell line HSC-T6 and LX2 human hepatic stellate cell line were provided by Professor Scott Friedman of Mount Sinai Hospital in New York, USA. The primary mouse HSCs were obtained via the way: after intubating the hepatic portal vein of the mouse, the cells were perfused with Leffert's and ethylene glycol bis-aminoethyl ether tetraacetic acid (EGTA) buffer in situ, and then collagenase was injected to digest the liver tissue, and then the primary mouse HSCs were isolated by Histodnz gradient. HSC-T6 cells were cultured in Waymouth medium; LX2 cells and primary mouse HSCs were cultured in Dulbecco's Modified Eagle Medium (DMEM) containing 10% fetal bovine serum (FBS), 100 μg/mL penicillin, 100 μg/mL streptomycin, and 2 mM L-glutamine HSC-T6 cells, LX2 cells and primary mouse HSCs were cultured in a humidified incubator containing 5% carbon dioxide at 37° C. After adding the FBS, the resting HSC is started. For in vitro studies, various concentrations of 1-[4-chloro-3-(trifluoromethyl)phenyl]-3-[3-(4-cyanophenoxy)phenyl]urea and sorafenib were dissolved in dimethyl sulfoxide and subsequently added to cells, which were in 5% FBS, for a predetermined period of time.
# Whole-cell extracts were obtained via RIPA buffer (Millipore, USA) and protein concentrations were quantified via a BCA protein assay kit (Thermo Fisher Scientific, USA). 20 or 25 μg of protein was added to various percentages of SDS-sodium dodecyl sulfate-acrylamide gel and blotted onto a polyvinylidene fluoride (PVDF) membrane. The membrane was then reacted with a primary antibody; after extensive washing, the membrane was reacted with a […] containing a second antibody. Proteins were detected by Immobilon Western Chemiluminescent HRP substrate (Millipore, USA) or ECL detection system (UVP Corporation, USA). […]
# [3] = test system: p-STAT3 in mouse fibroblasts (NIH3T3 cell line); test: Western blot of p-STAT3 in NIH3T3 fibroblasts; type: cell-based; settings: FIG. 7B
# Method: Murine NIH3T3 fibroblasts and human lung epithelial cells (A549 cells) were purchased from the Bioresource Collection and Research Center (Hsinchu, Taiwan). Cells were cultured in Dulbecco's modified eagle medium (DMEM) containing 10% fetal bovine serum (FBS), 100 μg/mL penicillin, 100 μg/mL streptomycin. Cells were cultured at 37° C. in a humidified atmosphere of 5% CO2 and passaged every 4 to 5 days at 1:4 ratios.
# Whole-cell extracts were obtained via RIPA buffer (Millipore, USA) and protein concentrations were quantified via a BCA protein assay kit (Thermo Fisher Scientific, USA). 20 or 25 μg of protein was added to various percentages of SDS-sodium dodecyl sulfate-acrylamide gel and blotted onto a polyvinylidene fluoride (PVDF) membrane. The membrane was then reacted with a primary antibody; after extensive washing, the membrane was reacted with a […] containing a second antibody. Proteins were detected by Immobilon Western Chemiluminescent HRP substrate (Millipore, USA) or ECL detection system (UVP Corporation, USA).
# Antibodies for immunoblotting techniques such as anti-E-cadherin, anti-Fibronectin, anti-N-cadherin were purchased from Abcam (UK). […]
# [4] = test system: CCl4-induced hepatic fibrosis in mice; test: CCl4-induced hepatic fibrosis mice regression model; type: in vivo, male C57BL/6J mice; settings: 10 mg/kg for 4 weeks without CCl4 after 8 weeks CCl4 induction
# Excerpt: In male C57BL/6J mice, liver fibrosis was induced by carbon tetrachloride (CCl4). The mice were given peritoneal injection of carbon tetrachloride for 4 or 8 weeks every two weeks.
# as §1
# SHP-1 = target: T1, SHP-1 (Homo sapiens, UniProt P29350); test: SHP-1 phosphatase activity, LX2 cells; type: cell-based
# T1 construct: LX2 cell protein extract were reacted with anti-SHP-1 antibody in immunoprecipitation buffer overnight; endogenous in cells; host or cells: LX2 cells
# Method: After drug treatment, mouse fibroblasts (NIH3T3 cell line), human lung epithelial cells (A549 cell line) or LX2 cell protein extract were reacted with anti-SHP-1 antibody in immunoprecipitation buffer overnight. Protein A/G Sepharose Fast Flow Beads (GE) were added to each sample, followed by a rotation reaction at 4° C. for 3 hours. The 96EnzChek® tyrosine phosphatase assay kit (R-22067) was used for SHP-1 activity assay (Invitrogen, USA).
# Plasmids encoding the human wild-type SHP-1 and SHP-1 mutant, in which the N—SH2 domain was truncated (dN1) or one aspartic acid at site 61 was changed into an alanine residue (D61A) were cloned into the pCMV6-entry vector with myc-tag. These mutants were confirmed through DNA sequencing. Smart-pool siRNA, including the control (D-001810-10), and SHP-1 (PTPN6, L-009778-00-0005) were obtained from Dharmacon Inc. (Chicago, Ill., USA). For transient expression, SHP-1 plasmids or siRNA (final concentration, 100 nM) with the Lipofectamine 2000 transfection reagent were pretransfected into the LX2 cells for 24 h, following the manufacturer's instructions.
# T1 sequence (P29350 whole entry): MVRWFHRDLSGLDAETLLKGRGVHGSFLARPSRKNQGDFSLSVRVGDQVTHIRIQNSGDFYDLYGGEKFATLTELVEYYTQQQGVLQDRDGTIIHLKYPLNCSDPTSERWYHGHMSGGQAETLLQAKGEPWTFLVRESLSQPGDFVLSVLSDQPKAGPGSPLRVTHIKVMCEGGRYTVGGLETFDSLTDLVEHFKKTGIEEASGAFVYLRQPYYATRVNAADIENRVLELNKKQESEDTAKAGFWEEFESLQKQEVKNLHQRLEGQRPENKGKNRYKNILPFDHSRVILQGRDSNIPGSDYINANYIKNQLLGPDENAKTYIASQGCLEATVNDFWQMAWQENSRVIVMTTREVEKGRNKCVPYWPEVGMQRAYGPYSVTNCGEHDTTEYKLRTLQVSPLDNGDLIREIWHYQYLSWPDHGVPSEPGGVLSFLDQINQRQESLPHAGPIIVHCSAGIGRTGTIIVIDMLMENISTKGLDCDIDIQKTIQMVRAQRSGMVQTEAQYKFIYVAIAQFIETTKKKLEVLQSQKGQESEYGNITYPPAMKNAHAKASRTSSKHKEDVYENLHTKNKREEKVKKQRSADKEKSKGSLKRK
smiles,measurement,setting,value
N#Cc1ccc(Oc2cccc(NC(=O)Nc3ccc(Cl)c(C(F)(F)F)c3)c2)cc1 [1-[4-chloro-3-(trifluoromethyl)phenyl]-3-[3-(4-cyanophenoxy)phenyl]urea],quantitative collagen-positive area (qCPA),[1],significantly reduced
same,IL-6-induced p-STAT3 upregulation,"[2]; 10 μM for 4 hours, then IL-6 100 ng/mL 30 minutes, FIG. 15B",suppressed
same,cleavage of poly(ADP-ribose) polymerase (PARP) fragments,"[2]; Western blotting, FIG. 14C",dose-dependently increased
same,"p-Akt and p-STAT3 after administering AG1295, a specific PDGFR inhibitor","[2]; independent of the PDGFR signaling, FIG. 15D",still downregulated
same,expression level of p-STAT3,[3],reduced
same,qCPA (quantitative collagen-positive area),[4]; FIG. 12G,significantly decreased
same,Ishak fibrosis score,[4]; FIG. 12H,significantly decreased
same,SHP-1 activity in the ectopic expression of the vector and wild-type SHP-1,SHP-1; FIG. 17C,significantly increased the SHP-1 activity
same,SHP-1 activity,"SHP-1; LX2, sorafenib 5 μM, compound 2.5 or 5 μM, FIG. 16C",significantly increased the SHP-1 activity at a lower concentration
same,"enhancing SHP-1 activity, compared with sorafenib","SHP-1; test system not stated at the place, text refers to FIG. 2A",better than the known anti-fibrosis drug sorafenib
